Data on 1 molecule can be found in paper PMC8811960, “A Novel 2-Carbon-Linked Dimeric Artemisinin With Potent Antileukemic Activity and Favorable Pharmacology” (Frontiers in Oncology, 2022).

Molecules are shown by their SMILES.

For data set [1], the system named is 10 human AML cell lines. The data set can be described thus: alamarBlue growth inhibition, panel of 10 human AML cell lines. The class given is cell-based. How it is done: (§1) Cytotoxicity was assessed using alamarBlue assays (Life Technologies, Grand Island, NY) following manufacturer’s guidelines. Cell death was verified by Annexin V/7-aminoactinomycin D (7AAD) staining (BioLegend, San Diego, CA) per manufacturer’s guidelines.
Cell lines with adverse risk cytogenetic and molecular features, e.g. MLL rearrangements (ML2, MOLM14, MV4;11, THP1), FLT3-ITD (MOLM14, MV4;11), TP53 mutations (KG1a, ML2, THP1, U937), and NRAS/KRAS mutations (ML2, THP1), were among those exquisitely sensitive to ART631, with IC50s < 50 nM. The K562 cell line was the only exception, as it was resistant to all 3 of these ARTs. Based on this in vitro activity data combined with the drug stability data described below, ART631 was prioritized over ART576 for further in vitro and in vivo antileukemic efficacy experiments here ( Table 2 ).

Data set [2] has as its system HL60. The data set can be described thus: alamarBlue growth inhibition, HL60. To be noted: Homo sapiens, HL-60, HL60, 48h, mean of 2 independent assays ± SD. It counts as cell-based. How it is done: as §1
Data set [3] relates to THP1. The data set is described as follows: alamarBlue growth inhibition, THP1. To be noted: Homo sapiens, THP-1, THP1, 48h, mean of 2 independent assays ± SD. The class given is cell-based. How it is done: as §1
For data set [4], the system named is AML45 PDX. The arrangement: method as in PMID 33560385. To be noted: monotherapy; cited from earlier work.
The conditions of data set [5]: as previously reported; cited from earlier work.
The test system of data set [6] is TF1. The data set can be described thus: alamarBlue growth inhibition, TF1. The class given is cell-based. The settings on record: Homo sapiens, TF-1, TF1, 48h, mean of 2 independent assays ± SD. How it is done: as §1
In general terms: The colour change of resazurin is a common sign of viable cells or microbes.

The subject of data set [7] is MV4;11. The data set is described as follows: alamarBlue growth inhibition, MV4;11. It counts as cell-based. The settings on record: Homo sapiens, MV4;11, 48h, mean of 2 independent assays ± SD. The protocol: as §1
Data set [8] relates to 23 leukemia cell lines. The settings on record: against 23 leukemia cell lines; cited from earlier work.
The conditions of data set [9]: x5; cited from earlier work.
Data set [10] deals with KG1a. The data set is described as follows: alamarBlue growth inhibition, KG1a. To be noted: Homo sapiens, KG-1a, 48h, mean of 2 independent assays ± SD. It counts as cell-based. How it is done: as §1
Data set [11] has as its system K562. The data set is described as follows: alamarBlue growth inhibition, K562. The settings on record: Homo sapiens, K562, 48h, mean of 2 independent assays ± SD. The class given is cell-based. The protocol: as §1
Data set [12] deals with HEL. The data set is described as follows: alamarBlue growth inhibition, HEL. To be noted: Homo sapiens, 48h, mean of 2 independent assays ± SD. The class given is cell-based. How it is done: as §1
Data set [13] deals with DDIT3. The data set is described as follows: qRT-PCR for DDIT3 mRNA. The settings on record: MOLM14, 18h, ART631 200 nM, ART838 200 nM, AS 10 uM, similar results in MV4;11 and ML2. The class given is cell-based, human. The protocol: Cells were pre-treated with […] ROS detection reagent 5-(and 6-)-chloromethyl-2’,7’-dichlorodihydrofluorescein diacetate (CM-H2DCFDA, Life Technologies) for 30 min, followed by the iron chelator deferoxamine mesylate (DFO; 11 mM) for 60 min. Cells were then treated with ART631 (200 nM) or DMSO control for 18h, with subsequent analysis by flow cytometry. Western blotting and quantitative reverse transcription PCR (qRT-PCR) to assess for molecular markers of ROS-mediated apoptosis were performed as previously described ([20]).
Figure 4 ART631 elevated ROS and CHOP levels and reduced MCL1 expression in MOLM14 AML cells. (A) MOLM14 AML cells were pre-treated with ROS detection reagent CM-H2DCFDA ([…]) for 30 min, pre-treated with deferoxamine mesylate (DFO; 11 mM) for 60 min, and then treated with ART631 (200 nM) or DMSO control for 18h. They were then analyzed by flow cytometry. Graph represents %CM-H2DCFDA fluorescence compared to vehicle (DMSO) control treated cells. Error bars represent SD from 3 independent experiments. (B) MOLM14 AML cells were treated for 18h with vehicle, AS (10 uM), ART838 (200 nM), ART631 (200 nM), cytarabine (AraC; 150 nM), or SOR (5 uM). Protein was isolated and western blotted for MCL1, BCL2, CHOP, and β-actin. (C) MOLM14 cells were treated as in (B) for 18h, total RNA isolated, cDNA synthesized, and SYBR Green qRT-PCR performed in triplicates. Ct values were normalized to housekeeping gene GAPDH and fold change shown relative to vehicle (DMSO) control. Error bars represent SD from 3 independent experiments done in triplicate.
In general terms: Quantitative PCR measures a nucleic acid by following its amplification.

Data set [14] concerns U937. The data set can be described thus: alamarBlue growth inhibition, U937. It counts as cell-based. The settings on record: Homo sapiens, U-937, U937, 48h, mean of 2 independent assays ± SD. The protocol:
as §1

Data set [15] deals with ML2. The data set can be described thus: alamarBlue growth inhibition, ML2. The class given is cell-based. To be noted: Homo sapiens, ML-2, ML2, 48h, mean of 2 independent assays ± SD. The protocol:
as §1

The subject of data set [16] is MOLM14. The data set is described as follows: alamarBlue growth inhibition, MOLM14. It counts as cell-based. To be noted: Homo sapiens, MOLM-14, 48 h. How it is done:
as §1
In this experiment, provided to show the entire concentration:response range, MOLM14 AML cells were cultured with a range of concentrations of artesunate (AS), ART838, ART631, and ART576 for 48h. Graph indicates growth inhibition relative to vehicle (DMSO)-treated controls by alamarBlue absorbance assays. Data points and error bars represent mean and SD of 3 independent experiments done in triplicate.

In general, IC50 refers to the concentration that inhibits the measured activity by half. Consider `C[C@@H]1CCC2[C@@H](C)[C@@H](CC(COP(=O)(Oc3ccccc3)Oc3ccccc3)C[C@H]3O[C@@H]4O[C@@]5(C)CCC6[C@H](C)CCC([C@H]3C)[C@]64OO5)O[C@@H]3O[C@@]4(C)CCC1[C@@]23OO4` (some centres unmarked) [ART838, reference compound], for which the IC50 was 22 to 112 nM in data set [1] (Homo sapiens, read-out: IC50 range); 45 ± 3 nM in [2]; 45 ± 3 nM in data set [3]; 36 ± 3 nM in [6]; 28 ± 1 nM in data set [7]; 112 ± 7 nM in [10]. Moreover, the IC50 in data set [11] is > 1000 nM; in [12], 72 ± 6 nM; in [14] it was 22 ± 3 nM; in data set [15] it was 40 ± 5 nM; in [16] it was 28 ± 3 nM. In addition, the “number of human AML cell lines whose growth was inhibited” value in data set [1] (of 10 human AML cell lines tested) was found to be 9. For the same molecule, the survival versus vehicle entry in data set [4] is given as “did not reach statistical significance”. The “degradation (stability)” value in data set [5] is ≤ 20%. In addition, the “fold more potent than artesunate (AS)” value in data set [8] was 88 fold. In data set [9], the “multiple day MTD regimen” value was 50 mg/kg/day. The “DDIT3 mRNA” value in [13] is given as “increased”.
